Experimental data taken from patent publication US11986459B2, “Methods for the treatment of Mycobacterium infections” (University of South Florida, priority 2020, dated 2024).
≈ marks a conversion by molar mass, not a printed value. Where two headings read alike, the source gives them in different places.

Legend:
[1] = biological target: α-glucosidase; conditions: literature ref 12; read-out: α-glucosidase inhibition activity IC50; cited from earlier work
[2] = test system: murine macrophage cell line J774; assay: Cytotoxicity assay with J774 macrophages; conditions: for IC50: Mus musculus
[3] = test system: replicating stage M. tuberculosis (Mtb); assay: MIC against replicating Mtb; type: cell-based, Mycobacterium tuberculosis; conditions: for MIC: Mycobacterium tuberculosis
[4] = test system: zebrafish embryos; conditions: reported in literature; cited from earlier work
[5] = test system: M. abscessus (Mab); assay: M. abscessus (Mab) inhibition; type: cell-based, Mycobacterium abscessus; conditions: Table 10; pure compounds
[6] = test system: C. albicans; conditions: reported in literature; cited from earlier work
[7] = test system: S. pyogenes; conditions: reported in literature; cited from earlier work
[8] = test system: S. aureus; conditions: reported in literature; cited from earlier work
[9] = test system: S. typhimurium; conditions: reported in literature; cited from earlier work
[10] = test system: E. co/i; conditions: reported in literature; cited from earlier work
[11] = test system: MRSA; conditions: literature ref 20; cited from earlier work
[12] = biological target: acetylcholinesterase (AchE) (Homo sapiens, UniProt P22303); conditions: literature ref 13; read-out: IC50 against acetylcholinesterase (AchE); cited from earlier work
[13] = Table 10, pure compounds, replicating Mtb, read-out: MIC (Mtb-rep)

acetylcholinesterase (AchE), sequence (P22303 32-614): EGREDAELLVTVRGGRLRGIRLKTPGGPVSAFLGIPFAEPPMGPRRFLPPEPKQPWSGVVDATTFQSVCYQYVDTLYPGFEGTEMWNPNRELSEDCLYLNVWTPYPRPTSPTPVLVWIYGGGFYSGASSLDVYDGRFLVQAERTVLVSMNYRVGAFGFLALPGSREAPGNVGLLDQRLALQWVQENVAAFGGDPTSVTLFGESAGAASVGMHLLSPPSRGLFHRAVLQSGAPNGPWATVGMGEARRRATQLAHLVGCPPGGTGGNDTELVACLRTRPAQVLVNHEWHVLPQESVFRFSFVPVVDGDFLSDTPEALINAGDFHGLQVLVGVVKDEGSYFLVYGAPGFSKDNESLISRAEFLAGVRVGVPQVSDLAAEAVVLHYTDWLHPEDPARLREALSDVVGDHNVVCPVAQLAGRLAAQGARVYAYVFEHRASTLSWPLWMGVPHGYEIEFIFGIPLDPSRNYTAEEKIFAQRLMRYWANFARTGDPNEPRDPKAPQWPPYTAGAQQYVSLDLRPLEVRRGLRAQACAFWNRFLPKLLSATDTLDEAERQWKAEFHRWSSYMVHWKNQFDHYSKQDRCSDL

## C[C@@H]1CC(=O)CCCCCc2cc(O)cc(O)c2C(=O)O1 [(3R)-5-oxo-de-O-methyllasiodiplodin]
[1]
  IC50: 54.6 µM

## C[C@@H]1CCC[C@H](O)CCCc2cc(O)cc(O)c2C(=O)O1 [(3R,7R)-7-hydroxy-de-O-methyllasiodiplodin]
[1]
  IC50: 25.8 µM

## CC[C@H](C)/C=C(C)/C=C/C(=O)Cc1cc(O)c(C)c(O)c1C=O [EtOAc-D, 2,4-dihyroxy-6-(5,7-dimethyl-2-oxo-trans-3-trans-5-nonadienyl)-3-methylbenzaldehyde]
[2]; J774, read-out: IC50 (J774)
  IC50: ~200 µg/mL (≈ 632 µM)
[3]; read-out: MIC (Mtb-rep)
  MIC: ~50 µg/mL (≈ 158 µM)
[4]
  effect on exposed zebrafish embryos: severely impaired heart morphology and curved trunk

## COc1cc2c(c(O)c1C)COC2=O [EtOAc-F-8-3, 4-hydroxy-6-methoxy-5-methyl-1(3H)-isobenzofuranone]
[5]
  M. abscessus: 200 µg/mL
[3]; [13]
  MIC: 200 µg/mL (≈ 1030 µM)

## C/C=C(/C(=O)O)N1C(=O)C=C(C)C1=O [EtOAc-G-4, pencolide]
[5]
  M. abscessus: 100 µg/mL
[6]
  inhibition of C. albicans: inhibition
[7]
  activity against S. pyogenes: inhibition
[8]
  inhibition of S. aureus: inhibition
[3]; [13]
  MIC: 50 µg/mL (≈ 256 µM)
[9]
  activity against S. typhimurium: inhibition
[10]
  inhibition of E. co/i: inhibition

## COc1cc(CC(=O)CO)c(C=O)c(O)c1C [EtOAc-M-6-3]
[5]
  M. abscessus: 100 µg/mL
[3]; [13]
  MIC: 50 µg/mL (≈ 210 µM)

## CC[C@H](C)/C=C(C)/C=C/C1=CC2=C(Cl)C(=O)[C@](C)(OC(C)=O)C(=O)C2=CN1CCO [EtOAc-O-7, Isochromophilone VI]
[2]; J774
  IC50: 200 µg/mL (≈ 461 µM)
[2]; J774, read-out: IC50 (J774)
  IC50: ~200 µg/mL (≈ 461 µM)
[2]; conclusion b210, J774
  cytotoxicity (in words): low cytotoxicity
[7]
  activity against S. pyogenes: bioactivity
[3]; IC50 (J774) over MIC (Mtb)
  selectivity index (SI): 10.78
[3]; [13]
  MIC: 18.6 µg/mL (≈ 42.9 µM)
[3]; text b208, FIG. 11, replicating Mtb, read-out: MIC
  MIC: 18 µg/mL (≈ 41.5 µM)
[3]; conclusion b210
  bioactivity against replicating Mtb (in words): promising bioactivity
[9]
  activity against S. typhimurium: bioactivity

## CCC(C)/C=C(C)/C=C/C1=CC2=C(Cl)C(=O)C(C)(OC(C)=O)C(=O)C2=CN1CCCC(=O)O (stereo not drawn) [Isochromophione IX, isochromophilone IX]
[11]
  MIC, inhibition against MRSA: 50 µg/mL (≈ 105 µM)

## COc1ccc(-c2cc3c(c(=O)o2)C[C@]2(O)[C@@]4(C)CCC(=O)C(C)(C)[C@]4(O)CC[C@@]2(C)O3)cc1 [terreulactone C]
[12]
  IC50: 0.028 µM
